Three compounds from ChEMBL document CHEMBL5576072, “Discovery of a potent and selective JAK1-targeting PROTAC degrader with anti-tumor activities” (Bioorg Med Chem Lett, 2024) can be followed below.

SMILES strings stand for the structures. Active and inactive are the calls of the source. The calls are words filed in the database; no cut-off is given here.

A word on the IC50: it is the concentration that gives 50% inhibition. A high value points to weaker potency.

Assay [1] has as its target T1, Signal transducer and activator of transcription 1-alpha/beta (Homo sapiens) (UniProt P42224).
T1 sequence (whole entry): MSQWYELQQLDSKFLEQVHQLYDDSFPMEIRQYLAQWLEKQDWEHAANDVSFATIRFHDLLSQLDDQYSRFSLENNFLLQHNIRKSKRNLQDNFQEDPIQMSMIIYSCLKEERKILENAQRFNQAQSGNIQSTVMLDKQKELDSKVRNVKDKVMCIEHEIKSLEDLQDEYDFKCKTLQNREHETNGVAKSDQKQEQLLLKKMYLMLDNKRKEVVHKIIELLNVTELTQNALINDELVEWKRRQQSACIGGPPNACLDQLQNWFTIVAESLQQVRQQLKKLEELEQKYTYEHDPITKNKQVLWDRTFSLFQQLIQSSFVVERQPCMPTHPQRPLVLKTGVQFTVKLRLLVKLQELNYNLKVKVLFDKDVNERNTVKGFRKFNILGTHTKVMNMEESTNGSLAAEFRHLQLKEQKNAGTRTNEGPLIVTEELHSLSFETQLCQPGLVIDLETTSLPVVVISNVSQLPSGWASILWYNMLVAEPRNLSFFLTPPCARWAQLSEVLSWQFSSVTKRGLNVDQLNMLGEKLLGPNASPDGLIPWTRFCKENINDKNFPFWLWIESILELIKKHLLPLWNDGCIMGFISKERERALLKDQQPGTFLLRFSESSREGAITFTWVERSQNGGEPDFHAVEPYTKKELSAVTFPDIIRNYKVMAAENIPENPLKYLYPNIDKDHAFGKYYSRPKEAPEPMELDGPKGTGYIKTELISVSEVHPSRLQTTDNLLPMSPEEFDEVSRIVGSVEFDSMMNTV
Kind of assay: Inhibition of STAT1 phosphorylation in HEL cells at 1 uM pretreated with MG132 followed by compound addition and measured after 24 hrs by Western blotting analysis. In kind it is cell-based. For orientation: In western blotting, separated proteins are transferred to a membrane and probed.

The subject of a further assay is THP-1. Kind of assay: Antiproliferative activity against human THP-1 cells.
The target in assay [2] is Signal transducer and activator of transcription 3 (Homo sapiens) (UniProt P40763). Kind of assay: Inhibition of STAT3 phosphorylation in HEL cells at 1 uM incubated for 24 hrs by Western blotting analysis. It is filed as cell-based.
Sequence of Signal transducer and activator of transcription 3 (Homo sapiens) (P40763 whole entry): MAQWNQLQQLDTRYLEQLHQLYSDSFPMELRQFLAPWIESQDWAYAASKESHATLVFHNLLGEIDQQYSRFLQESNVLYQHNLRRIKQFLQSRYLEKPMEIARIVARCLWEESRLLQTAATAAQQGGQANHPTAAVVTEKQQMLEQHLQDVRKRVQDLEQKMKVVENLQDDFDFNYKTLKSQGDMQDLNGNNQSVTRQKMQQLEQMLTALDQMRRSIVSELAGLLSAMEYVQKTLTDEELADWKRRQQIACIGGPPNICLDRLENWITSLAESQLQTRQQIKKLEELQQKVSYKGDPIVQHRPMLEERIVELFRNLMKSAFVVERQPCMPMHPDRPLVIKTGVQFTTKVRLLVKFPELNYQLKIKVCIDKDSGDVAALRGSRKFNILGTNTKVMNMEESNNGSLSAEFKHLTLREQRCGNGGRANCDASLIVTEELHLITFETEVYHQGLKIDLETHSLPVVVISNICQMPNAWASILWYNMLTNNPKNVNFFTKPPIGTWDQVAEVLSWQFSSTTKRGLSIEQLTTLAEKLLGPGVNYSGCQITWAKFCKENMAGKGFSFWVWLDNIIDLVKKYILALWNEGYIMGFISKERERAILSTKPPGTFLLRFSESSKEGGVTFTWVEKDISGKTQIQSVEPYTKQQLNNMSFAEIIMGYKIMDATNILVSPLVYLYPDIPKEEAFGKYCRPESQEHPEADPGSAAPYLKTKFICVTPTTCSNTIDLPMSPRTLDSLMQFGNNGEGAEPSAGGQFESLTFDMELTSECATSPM
Assay [3] has as its target T1, Signal transducer and activator of transcription 1-alpha/beta (Homo sapiens). Kind of assay: Inhibition of STAT1 phosphorylation in HEL cells at 1 uM incubated for 24 hrs by Western blotting analysis. In kind it is cell-based.
Assay [4] has as its target Signal transducer and activator of transcription 3 (Homo sapiens) (UniProt P40763). Kind of assay: Inhibition of STAT3 phosphorylation in HEL cells at 1 uM pretreated with momelotinib followed by compound addition and measured after 24 hrs by Western blotting analysis. It is filed as cell-based.
The next assay concerns K562. Kind of assay: Antiproliferative activity against human K562 cells.
Assay [5] has as its target Signal transducer and activator of transcription 3 (Homo sapiens) (UniProt P40763). Kind of assay: Inhibition of STAT3 phosphorylation in HEL cells at 1 uM pretreated with MG132 followed by compound addition and measured after 24 hrs by Western blotting analysis. It is filed as cell-based.
The subject of another assay is HEL. Kind of assay: Antiproliferative activity against HEL cells. Particulars: Homo sapiens.
Assay [6] deals with T1, Signal transducer and activator of transcription 1-alpha/beta (Homo sapiens). Kind of assay: Inhibition of STAT1 phosphorylation in HEL cells at 1 uM pretreated with momelotinib followed by compound addition and measured after 24 hrs by Western blotting analysis. It is filed as cell-based.

Turning to `N#CCNC(=O)c1ccc(-c2ccnc(Nc3ccc(N4CCC(C(=O)NCCCCC#Cc5cccc6c5C(=O)N(C5CCC(=O)NC5=O)C6=O)CC4)cc3)n2)cc1` (stereo not given), the inhibition entry in [1], in [4], in [5] and in assay [6] was “inactive” each time. Further, the IC50 stood at 10.5 µM in the assay on THP-1, 6.1 µM in the assay on K562 and 1.3 µM with HEL. Also, the inhibition result in assay [2] and in assay [3] was “Active” each time.

As for `N#CCNC(=O)c1ccc(-c2ccnc(Nc3ccc(N4CCC(C(=O)NCCCC#Cc5cccc6c5C(=O)N(C5CCC(=O)NC5=O)C6=O)CC4)cc3)n2)cc1` (stereo not given), the half-inhibitory concentration (IC50) in the assay on THP-1 was over 50 µM; with K562, 45.1 µM; in the assay with HEL, 37.1 µM.

`N#CCNC(=O)c1ccc(-c2ccnc(Nc3ccc(N4CCC(C(=O)NCCCCCC#Cc5cccc6c5C(=O)N(C5CCC(=O)NC5=O)C6=O)CC4)cc3)n2)cc1` (stereo not given): the IC50 in the assay on THP-1, in the assay with K562 and in the assay with HEL was over 50 µM in each case.
